Measured values as given in US20120226031A1, “PALMARUMYCIN BASED INHIBITORS OF THIOREDOXIN AND METHODS OF USING SAME” (ARIZONA BOARD OF REGENTS, ACTING ON BEHALF OF THE …, priority 2005, published 2012).
Converted amounts (≈) assume the structure as drawn. Like-named read-outs stand apart in the source and are kept apart here.

Assays:
[1] = target: T1, human cytochrome P-450 reductase (versus human thioredoxin reductase, TR) (Homo sapiens, UniProt P16435); assay: Inhibition of human cytochrome P-450 reductase (selectivity); type: biochemical; settings: human
T1 sequence (P16435 1-677): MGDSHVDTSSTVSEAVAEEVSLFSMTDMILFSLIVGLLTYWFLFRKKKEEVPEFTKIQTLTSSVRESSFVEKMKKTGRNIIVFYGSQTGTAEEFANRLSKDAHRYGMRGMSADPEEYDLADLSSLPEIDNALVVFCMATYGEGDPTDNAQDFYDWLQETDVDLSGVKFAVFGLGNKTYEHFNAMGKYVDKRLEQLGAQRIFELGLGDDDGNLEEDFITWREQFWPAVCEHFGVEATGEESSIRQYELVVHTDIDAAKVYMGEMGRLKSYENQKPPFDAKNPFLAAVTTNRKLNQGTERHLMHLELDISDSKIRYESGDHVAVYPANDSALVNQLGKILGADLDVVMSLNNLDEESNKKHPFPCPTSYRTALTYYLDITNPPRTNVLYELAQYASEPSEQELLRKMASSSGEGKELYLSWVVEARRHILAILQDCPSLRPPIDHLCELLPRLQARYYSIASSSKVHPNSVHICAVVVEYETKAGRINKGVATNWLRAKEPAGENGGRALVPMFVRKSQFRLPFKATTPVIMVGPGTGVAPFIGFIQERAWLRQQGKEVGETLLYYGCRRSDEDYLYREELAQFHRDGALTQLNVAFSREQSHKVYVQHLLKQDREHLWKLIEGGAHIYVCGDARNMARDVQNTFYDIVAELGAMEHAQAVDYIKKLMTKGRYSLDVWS
Description: (§1) Based upon the observation that PX-916 was rapidly converted to PX-960 in aqueous solution, the ability of PX-960 to inhibit purified human TR was measured and found to be similar to that of PX-916 (Table 2). PX-916 was a selective inhibitor of human TR compared to two other NADPH dependent reductases with a selectivity of at least 200 for human glutathione reductase and human cytochrome P-450 reductase (Table 3).

[2] = target: T2, human cytochrome P-450 reductase (Homo sapiens, UniProt P16435); assay: as above; type: biochemical
T2 sequence (P16435 1-677): T1 sequence (P16435 1-677)
Description: as §1

Aqueous solubility = type: physicochemical
[3] = Stability in fresh mouse plasma at room temperature; type: in vitro ADME
Description: Two metabolite peaks could be seen at 5 minutes, but were undetectable by 30 minutes.

[4] = target: T3, human thioredoxin reductase (Homo sapiens, UniProt Q16881); assay: Inhibition of purified human thioredoxin reductase (TrxR/TR); type: biochemical
T3 construct: (placenta); from tissue; host or cells: human placenta
T3 sequence (Q16881 151-649 limits assumed): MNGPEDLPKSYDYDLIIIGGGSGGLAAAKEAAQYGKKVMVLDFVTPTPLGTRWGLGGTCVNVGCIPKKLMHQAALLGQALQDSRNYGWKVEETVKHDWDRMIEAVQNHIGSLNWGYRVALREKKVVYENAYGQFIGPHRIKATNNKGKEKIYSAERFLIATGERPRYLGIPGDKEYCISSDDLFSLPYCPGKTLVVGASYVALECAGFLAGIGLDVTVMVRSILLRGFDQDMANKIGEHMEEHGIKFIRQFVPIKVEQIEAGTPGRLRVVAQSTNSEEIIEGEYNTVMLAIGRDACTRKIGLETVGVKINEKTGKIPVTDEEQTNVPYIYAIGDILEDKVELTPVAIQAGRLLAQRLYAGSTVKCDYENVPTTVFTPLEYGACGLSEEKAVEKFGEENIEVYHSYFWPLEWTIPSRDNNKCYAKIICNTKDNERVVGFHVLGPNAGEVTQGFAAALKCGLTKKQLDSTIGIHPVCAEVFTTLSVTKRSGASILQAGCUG

[5] = target: T4, human glutathione reductase (Homo sapiens, UniProt P00390); assay: Inhibition of human glutathione reductase (selectivity); type: biochemical
T4 sequence (P00390 45-522 limits assumed): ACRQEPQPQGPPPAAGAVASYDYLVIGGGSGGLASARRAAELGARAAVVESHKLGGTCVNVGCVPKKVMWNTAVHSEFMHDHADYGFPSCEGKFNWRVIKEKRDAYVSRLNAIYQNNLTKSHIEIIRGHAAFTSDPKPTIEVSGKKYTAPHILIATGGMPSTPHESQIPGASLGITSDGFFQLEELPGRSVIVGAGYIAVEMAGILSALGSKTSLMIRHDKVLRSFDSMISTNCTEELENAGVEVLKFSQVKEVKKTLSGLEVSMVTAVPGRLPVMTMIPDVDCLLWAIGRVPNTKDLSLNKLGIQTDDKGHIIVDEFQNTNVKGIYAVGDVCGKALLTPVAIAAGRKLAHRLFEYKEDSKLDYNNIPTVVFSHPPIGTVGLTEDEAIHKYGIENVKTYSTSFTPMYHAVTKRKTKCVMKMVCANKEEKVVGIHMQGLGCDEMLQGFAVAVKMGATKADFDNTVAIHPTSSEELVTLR
Description: as §1

[6] = system: A-673 human rhabdomyosarcoma xenografts; assay: Antitumor activity, A-673 rhabdomyosarcoma xenograft; type: in vivo, mouse; parameters: dose or concentration left out as unconfirmed; settings: ip
Description: FIG. 4. Antitumor activity of PX-916. A. Female beige nude mice were inoculated subcutaneously (s.c.) with 10^7 A-673 rhabdomyosarcoma cells. […] B. Female scid mice were inoculated s.c. with 10^7 SHP-77 human small cell lung cancer cells. When tumors were 130 mm^3 on day 17 (arrow) dosing was begun with (∘) vehicle alone; (▪) PX-916 10 mg/kg i.v. daily for 8 doses; (▴) PX-916 25 mg/kg i.v. daily for 5 doses. C. Female scid mice implanted 1 day previously with a 17-β-estradiol 60 day slow release pellet were inoculated s.c. with 10^7 MCF-7 human breast cancer cells. When tumors were 180 mm^3 on day 8 (arrow) dosing was begun with (∘) vehicle alone; (⋄) PX-916 27.5 mg/kg i.v. daily for 5 doses. In both A and B values are the mean of 8 mice per group and bars are SE.
A single intravenous (i.v.) dose of PX-916 of 25 mg/kg inhibited MCF-7 human tumor xenograft TR up to about 60% at 24 hr and the inhibition was maintained for at least 48 hr (FIG. 3C). […] In this study 3 of eight nice had no histologically detectable tumor when the study was terminated on day 42.

Structure (SMILES): NCC(=O)Oc1ccc2c3c(cccc13)OC1(C=CC(=O)c3c(O)cccc31)O2 (stereo not drawn) [PX-916, O-glycyl naphthoquinone spiroketal]
- selectivity ratio ([1]; Table 3, read-out: Selectivity for TR vs cytochrome P-450 reductase): 104
- selectivity ratio ([1]; read-out: selectivity for human TR vs human cytochrome P-450 reductase): ≥ 200
- concentration increase needed to inhibit cytochrome P-450 reductase [2]: greater than 100 fold
- IC50 ([2]; Table 3, read-out: Inhibition IC50, cytochrome P-450 reductase (recombinant)): 29200 nM
- apparent maximum solubility in water (Aqueous solubility): around 10 mg
- improvement of aqueous solubility vs PX-960 (Aqueous solubility): 1-2 orders of magnitude
- solubility (Aqueous solubility; 20% β-cyclodextrin, aqueous with cosolvent or surfactant or cyclodextrin, read-out: solubility with 20% β-cyclodextrin): 2000 µg/mL (≈ 5.14 mM)
- solubility (Aqueous solubility; water, read-out: water solubility): 700 µg/mL (≈ 1.8 mM)
- half-life [3]: < 2 min
- IC50 ([4]; Table 1, read-out: TrxR inhibitory activity IC50): 280 nM
- IC50 ([4]; Table 2, read-out: Inhibition of human thioredoxin reductase IC50): 280 nM
- IC50 ([4]; Table 3, read-out: Inhibition IC50, thioredoxin reductase (placenta)): 280 nM
- mode of inhibition of thioredoxin reductase-1 ([4]; in words): NADPH and time dependent, apparently, irreversible inhibitor
- IC50 ([4]; read-out: IC50 purified TrxR): 280 nM
- IC50 ([4]; read-out: IC50 purified human TR): 280 nM
- concentration increase needed to inhibit glutathione reductase [5]: greater than 100 fold
- selectivity for human TR vs human glutathione reductase [5]: at least 200
- Selectivity for TR vs glutathione reductase ([5]; Table 3): >200
- IC50 ([5]; Table 3, read-out: Inhibition IC50, glutathione reductase (red blood cell)): > 50000 nM
- tumor growth inhibition [6]: 97%
- tumor growth rate ([6]; 5 days after dosing): 5±3 mm^3/d
